From patent publication US10301306B2, “Substituted dihydro-1H-pyrrolo[3,2-c]pyridin-4(5H)-ones as RIPK3 inhibitors” (BRISTOL-MYERS SQUIBB COMPANY, priority 2014, dated 2019)
pIC50: −log10 of the molar value. Read-outs that look alike come from different tables or passages of the source.

Target: RIPK3 (Homo sapiens (Human), UniProt Q9Y572)
Assay: RIPK3 HTRF Kinase Assay
Assay type: binding
Details: read-out: IC50 for Inhibition of RIPK3
[1] = RIPK3 1 nM, HTRF probe 23 nM, 60 min at room temperature

Sequence of RIPK3 (Q9Y572 whole entry, species assumed): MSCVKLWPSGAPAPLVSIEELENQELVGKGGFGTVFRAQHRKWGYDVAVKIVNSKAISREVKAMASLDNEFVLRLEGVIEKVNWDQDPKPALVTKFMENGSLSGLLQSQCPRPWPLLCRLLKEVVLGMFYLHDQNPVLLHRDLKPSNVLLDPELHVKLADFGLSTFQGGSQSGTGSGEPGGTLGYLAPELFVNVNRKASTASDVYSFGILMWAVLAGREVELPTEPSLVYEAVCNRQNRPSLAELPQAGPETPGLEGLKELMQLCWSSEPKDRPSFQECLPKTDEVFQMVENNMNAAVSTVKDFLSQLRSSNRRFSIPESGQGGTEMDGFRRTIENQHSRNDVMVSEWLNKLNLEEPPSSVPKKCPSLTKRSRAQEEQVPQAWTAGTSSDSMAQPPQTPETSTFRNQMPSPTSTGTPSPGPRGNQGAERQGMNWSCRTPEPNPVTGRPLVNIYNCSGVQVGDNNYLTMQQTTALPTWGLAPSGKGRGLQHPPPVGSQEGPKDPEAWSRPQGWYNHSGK

SMILES | pIC50 [1] | pIC50
Cc1n[nH]cc1-c1c(-c2ccc(F)cc2)c2c(n1Cc1ccc(F)cc1C#N)CCNC2=O [Example 1, 5-Fluoro-2-((3-(4-fluorophenyl)-2-(3-methyl-1H-pyrazol-4-yl)-4-oxo-4,5,6,7-tetrahydro-1H-pyrrolo[3,2-c]pyridin-1-yl)methyl)benzonitrile] | 4.82 to 7.00 | 
N#Cc1cccc(Cn2c3c(c(-c4ccc(F)cc4)c2-c2ccncc2)C(=O)NCC3)c1 [Example 2, 3-((3-(4-Fluorophenyl)-4-oxo-2-(pyridin-4-yl)-4,5,6,7-tetrahydro-1H-pyrrolo[3,2-c]pyridin-1-yl)methyl)benzonitrile] | > 7.52 | 
CC(=O)Nc1cc(-c2c(-c3ccc(F)cc3)c3c(n2CC2CCOCC2)CCNC3=O)ccn1 [Example 3, N-(4-(3-(4-Fluorophenyl)-4-oxo-1-((tetrahydro-2H-pyran-4-yl)methyl)-4,5,6,7-tetrahydro-1H-pyrrolo[3,2-c]pyridin-2-yl)pyridin-2-yl)acetamide] | 4.82 to 7.00 | 
CC(=O)Nc1cc(-c2c(-c3ccc(F)cc3)c3c(n2Cc2ccc(C)cc2)CCNC3=O)ccn1 [Example 4, N-(4-(3-(4-Fluorophenyl)-1-(4-methylbenzyl)-4-oxo-4,5,6,7-tetrahydro-1H-pyrrolo[3,2-c]pyridin-2-yl)pyridin-2-yl)acetamide] | > 7.52 | 
O=C1NCCc2c1c(-c1cccc(-c3ccccc3)c1)c(-c1ccncc1)n2CC1CCOCC1 [Example 5, 3-([1,1′-Biphenyl]-3-yl)-2-(pyridin-4-yl)-1-((tetrahydro-2H-pyran-4-yl)methyl)-6,7-dihydro-1H-pyrrolo[3,2-c]pyridin-4(5H)-one] | 4.82 to 7.00 | 
O=C1NCCc2c1c(-c1ccc(F)cc1)c(-c1ccnc(Cl)c1)n2Cc1ccc(C(F)(F)F)cc1F [Example 6, 2-(2-Chloropyridin-4-yl)-1-(2-fluoro-4-(trifluoromethyl)benzyl)-3-(4-fluorophenyl)-6,7-dihydro-1H-pyrrolo[3,2-c]pyridin-4(5H)-one] | 4.82 to 7.00 | 
CC(C)C(=O)Nc1cc(-c2c(-c3ccc(F)cc3)c3c(n2Cc2ccc(C(F)(F)F)cc2F)CCNC3=O)ccn1 [Example 7, N-(4-(1-(2-Fluoro-4-(trifluoromethyl)benzyl)-3-(4-fluorophenyl)-4-oxo-4,5,6,7-tetrahydro-1H-pyrrolo[3,2-c]pyridin-2-yl)pyridin-2-yl)isobutyramide] | 4.82 to 7.00 | 
O=C1NCCc2c1c(-c1ccc(F)cc1)c(-c1ccnc(NC(=O)C3CC3)c1)n2Cc1ccc(C(F)(F)F)cc1F [Example 8, N-(4-(1-(2-Fluoro-4-(trifluoromethyl)benzyl)-3-(4-fluorophenyl)-4-oxo-4,5,6,7-tetrahydro-1H-pyrrolo[3,2-c]pyridin-2-yl)pyridin-2-yl)cyclopropanecarboxamide] | > 7.52 | 
N#Cc1cc(F)ccc1Cn1c2c(c(-c3ccc(C(F)(F)F)cc3)c1-c1ccncc1)C(=O)NCC2 [Example 9, 5-Fluoro-2-((4-oxo-2-(pyridin-4-yl)-3-(4-(trifluoromethyl)phenyl)-4,5,6,7-tetrahydro-1H-pyrrolo[3,2-c]pyridin-1-yl)methyl)benzonitrile] | 7.00 to 7.51 | 
CNc1cc(-c2c(-c3ccc(F)cc3)c3c(n2Cc2ccc(C(F)(F)F)cc2F)CCNC3=O)ccn1 [Example 10] | 4.82 to 7.00 | 
N#Cc1cc(F)ccc1Cn1c2c(c(-c3cccnc3)c1-c1ccnc(Cl)c1)C(=O)NCC2 [Example 11, 2-((2-(2-Chloropyridin-4-yl)-4-oxo-3-(pyridin-3-yl)-4,5,6,7-tetrahydro-1H-pyrrolo[3,2-c]pyridin-1-yl)methyl)-5-fluorobenzonitrile] | 4.82 to 7.00 | 
Nc1cc(-c2c(-c3ccc(F)cc3)c3c(n2Cc2ccc(C(F)(F)F)cc2F)CCNC3=O)ccn1 [Example 12, 2-(2-Aminopyridin-4-yl)-1-(2-fluoro-4-(trifluoromethyl)benzyl)-3-(4-fluorophenyl)-6,7-dihydro-1H-pyrrolo[3,2-c]pyridin-4(5H)-one] | 4.82 to 7.00 | 
Cc1noc(-c2ccc(Cn3c4c(c(-c5ccc(F)cc5)c3-c3ccncc3)C(=O)NCC4)cc2)n1 [Example 13, 3-(4-Fluorophenyl)-1-(4-(3-methyl-1,2,4-oxadiazol-5-yl)benzyl)-2-(pyridin-4-yl)-6,7-dihydro-1H-pyrrolo[3,2-c]pyridin-4(5H)-one] | > 7.52 | 
N#Cc1cc(F)ccc1Cn1c2c(c(-c3cccs3)c1-c1ccncc1)C(=O)NCC2 [Example 14, 5-Fluoro-2-((4-oxo-2-(pyridin-4-yl)-3-(thiophen-2-yl)-4,5,6,7-tetrahydro-1H-pyrrolo[3,2-c]pyridin-1-yl)methyl)benzonitrile] | > 7.52 | 
COc1cnccc1-c1c(-c2ccc(F)cc2)c2c(n1Cc1ccc(F)cc1C#N)CCNC2=O [Example 15] | 7.00 to 7.51 | 
N#Cc1cc(F)ccc1Cn1c2c(c(-c3ccc(F)cc3)c1-c1ccnc(C(F)(F)F)c1)C(=O)NCC2 [Example 16] | 4.82 to 7.00 | 
N#Cc1cc(F)ccc1Cn1c2c(c(-c3ccc(F)cc3)c1-c1cncnc1)C(=O)NCC2 [Example 17] | 4.82 to 7.00 | 
N#Cc1cc(F)ccc1Cn1c2c(c(-c3ccc(F)cc3)c1-c1ccnc(F)c1)C(=O)NCC2 [Example 18] |  | 4.82 to 7.00
N#Cc1cc(F)ccc1Cn1c2c(c(-c3ccc(F)cc3)c1-c1ccc3[nH]ccc3c1)C(=O)NCC2 [Example 19] | 4.82 to 7.00 | 

SMILES | pIC50 [1] | pIC50
Cc1cc(-c2c(-c3ccc(F)cc3)c3c(n2Cc2ccc(F)cc2C#N)CCNC3=O)ccn1 [Example 20] | 7.00 to 7.51 | 
CC(=O)Nc1cccc(-c2c(-c3ccc(F)cc3)c3c(n2Cc2ccc(F)cc2C#N)CCNC3=O)c1 [Example 21] | 4.82 to 7.00 | 
N#Cc1cc(F)ccc1Cn1c2c(c(-c3ccc(F)cc3)c1-c1ccnc(Cl)c1)C(=O)NCC2 [Example 22] | 4.82 to 7.00 | 
N#Cc1cc(F)ccc1Cn1c2c(c(-c3ccc(F)cc3)c1-c1ccoc1)C(=O)NCC2 [Example 23] | 4.82 to 7.00 | 
Cn1cc(-c2c(-c3ccc(F)cc3)c3c(n2Cc2ccc(F)cc2C#N)CCNC3=O)cn1 [Example 24] | 4.82 to 7.00 | 
N#Cc1cc(F)ccc1Cn1c2c(c(-c3ccc(F)cc3)c1-c1ccsc1)C(=O)NCC2 [Example 25] | 4.82 to 7.00 | 
COc1ncc(-c2c(-c3ccc(F)cc3)c3c(n2Cc2ccc(F)cc2C#N)CCNC3=O)cn1 [Example 26] | 4.82 to 7.00 | 
N#Cc1cc(F)ccc1Cn1c2c(c(-c3ccc(F)cc3)c1-c1ccncc1F)C(=O)NCC2 [Example 27] | > 7.52 | 
N#Cc1ccc(Cn2c3c(c(-c4ccc(F)cc4)c2-c2ccncc2)C(=O)NCC3)cc1 [Example 28] | 7.00 to 7.51 | 
O=C1NCCc2c1c(-c1ccc(F)cc1)c(-c1ccncc1)n2CC1CCNCC1 [Example 30] | 4.82 to 7.00 | 
O=C1NCCc2c1c(-c1ccc(F)cc1)c(-c1ccncc1)n2CC1CCOCC1 [Example 31] | 4.82 to 7.00 | 
O=C1NCCc2c1c(-c1ccc(F)cc1)c(-c1ccncc1)n2CC1CCCNC1 (stereo not drawn) [Example 32] |  | 4.82 to 7.00
O=C1NCCc2c1c(-c1ccc(F)cc1)c(-c1ccncc1)n2Cc1ccc(C(F)(F)F)cc1 [Example 33] | 7.00 to 7.51 | 
N#Cc1cc(F)ccc1Cn1c2c(c(-c3ccc(F)cc3)c1-c1ccncc1)C(=O)NCC2 [Example 34] | > 7.52 | 
N#Cc1ccc(Cn2c3c(c(-c4ccc(F)cc4)c2-c2ccncc2)C(=O)NCC3)cc1F [Example 35] | 7.00 to 7.51 | 
CC(c1ccccc1)n1c2c(c(-c3ccc(F)cc3)c1-c1ccncc1)C(=O)NCC2 (stereo not drawn) [Example 36] | 4.82 to 7.00 | 
COc1ccc(CCn2c3c(c(-c4ccc(F)cc4)c2-c2ccncc2)C(=O)NCC3)cc1 [Example 37] | 4.82 to 7.00 | 
COc1ccc(Cn2c3c(c(-c4ccc(F)cc4)c2-c2ccncc2)C(=O)NCC3)cc1 [Example 38] | > 7.52 | 
O=C1NCCc2c1c(-c1ccc(F)cc1)c(-c1ccncc1)n2Cc1ccc(OC(F)(F)F)c(Cl)c1 [Example 40] | 4.82 to 7.00 | 

SMILES | pIC50 [1] | pIC50
O=C1NCCc2c1c(-c1ccc(F)cc1)c(-c1ccncc1)n2Cc1cc(F)cc(C(F)(F)F)c1 [Example 41] | > 7.52 | 
CS(=O)(=O)c1ccc(Cn2c3c(c(-c4ccc(F)cc4)c2-c2ccncc2)C(=O)NCC3)cc1 [Example 42] | 4.82 to 7.00 | 
O=C1NCCc2c1c(-c1ccc(F)cc1)c(-c1ccncc1)n2Cc1ccc(C(F)(F)F)cc1F [Example 43] | > 7.52 | 
O=C1NCCc2c1c(-c1ccc(F)cc1)c(-c1ccncc1)n2Cc1ccc(F)cc1 [Example 44] | > 7.52 | 
Cc1ccc(Cn2c3c(c(-c4ccc(F)cc4)c2-c2ccncc2)C(=O)NCC3)cc1 [Example 45] |  | 7.00 to 7.51
Cc1cc(Cn2c3c(c(-c4ccc(F)cc4)c2-c2ccncc2)C(=O)NCC3)ccc1F [Example 46] | > 7.52 | 
O=C1NCCc2c1c(-c1ccc(F)cc1)c(-c1ccncc1)n2Cc1nnc(C2CC2)s1 [Example 47] | 4.82 to 7.00 | 
Cc1nc(-c2ccc(Cn3c4c(c(-c5ccc(F)cc5)c3-c3ccncc3)C(=O)NCC4)c(F)c2)no1 [Example 48] | > 7.52 | 
N#CCn1c2c(c(-c3ccc(F)cc3)c1-c1ccncc1)C(=O)NCC2 [Example 49] | 4.82 to 7.00 | 
Cc1noc(C)c1Cn1c2c(c(-c3ccc(F)cc3)c1-c1ccncc1)C(=O)NCC2 [Example 50] | 4.82 to 7.00 | 
N#Cc1ccc(Cn2c3c(c(-c4ccc(F)cc4)c2-c2ccncc2)C(=O)NCC3)c(F)c1 [Example 51] | > 7.52 | 
O=C1NCCc2c1c(-c1ccc(F)cc1)c(-c1ccncc1)n2Cc1ccc(C2CC2)cc1 [Example 52] | 7.00 to 7.51 | 
O=C1NCCc2c1c(-c1ccc(F)cc1)c(-c1ccncc1)n2Cc1ccc(C(F)(F)F)cc1C(F)(F)F [Example 53] | > 7.52 | 
N#Cc1ccc(Cn2c3c(c(-c4ccc(F)cc4)c2-c2ccncc2)C(=O)NCC3)nc1 [Example 54] | 7.00 to 7.51 | 
O=C1NCCc2c1c(-c1ccc(F)cc1)c(-c1ccncc1)n2Cc1ccc(F)cc1C(F)(F)F [Example 55] | > 7.52 | 
O=C1NCCc2c1c(-c1ccc(F)cc1)c(-c1ccncc1)n2Cc1nnc(C2CC2)o1 [Example 56] | 4.82 to 7.00 | 
CC(C)Cn1c2c(c(-c3ccc(F)cc3)c1-c1ccncc1)C(=O)NCC2 [Example 58] | 7.00 to 7.51 | 
N#CCCCn1c2c(c(-c3ccc(F)cc3)c1-c1ccncc1)C(=O)NCC2 [Example 59] | 4.82 to 7.00 | 
Cc1nc(Cn2c3c(c(-c4ccc(F)cc4)c2-c2ccncc2)C(=O)NCC3)cs1 [Example 60] | 7.00 to 7.51 | 
